Test systems include M14 melanoma; NCI-H23 lung; TK-10 renal; SF-295 CNS; SF-268 CNS; KM12 colon; SK-MEL-2 melanoma; SW-620 colon; HL-60(TB) leukemia; UACC-257 melanoma; SK-OV-3 ovarian; SNB-75 CNS; HCC-2998 colon; SN12C renal; MDA-MB-435; HT29 colon; RPMI-8226 leukemia; EKVX NSCLC; RXF 393 renal; NCI-H460 lung.
Experiment in all cases: DTP human tumour cell line panel, 48 h

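Interpolation was linear, between the two tested concentrations surrounding the appropriate level; five concentrations were tested over 48 hours in 96-well plates. TGI marks complete inhibition of growth.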 A value given as a limit tells only on which side of the number the result lay.

As to `COc1ccc2c(c1)OCC1Cc3ccccc3OC21` (centres undefined), the TGI in the assay on M14 melanoma, in the assay on NCI-H23 lung, in the assay on TK-10 renal, in the assay with SF-295 CNS, with SF-268 CNS and in the assay on KM12 colon was over 100 µM throughout. The concentration for total growth inhibition (TGI) in the assay on SK-MEL-2 melanoma, in the assay on SW-620 colon, with HL-60(TB) leukemia, in the assay with UACC-257 melanoma, in the assay on SK-OV-3 ovarian and with SNB-75 CNS was over 100 µM throughout. In addition, the total growth inhibition concentration (TGI) in the assay with HCC-2998 colon, with SN12C renal, in the assay with MDA-MB-435, in the assay on HT29 colon, in the assay on RPMI-8226 leukemia and in the assay on EKVX NSCLC was over 100 µM each time.

Consider `CC1=NS(=O)(=O)c2ccccc2N1`, for which the TGI with M14 melanoma, in the assay on NCI-H23 lung, with TK-10 renal, in the assay with SF-295 CNS, in the assay on SF-268 CNS and with KM12 colon was over 100 µM throughout. In addition, the TGI with SK-MEL-2 melanoma, with SW-620 colon, with HL-60(TB) leukemia, in the assay with UACC-257 melanoma, with SK-OV-3 ovarian and with SNB-75 CNS was over 100 µM each time. In addition, the TGI in the assay on HCC-2998 colon, in the assay on SN12C renal, in the assay with HT29 colon, in the assay on RXF 393 renal, in the assay with NCI-H460 lung and with EKVX NSCLC was over 100 µM in each case.

On to `Cc1cc(C(=O)CCCCOc2ccc(C3=NCCO3)cc2)c(C)n1C`, for which the TGI with M14 melanoma, in the assay on NCI-H23 lung, in the assay with TK-10 renal, with SF-295 CNS, in the assay on SF-268 CNS and with KM12 colon was over 100 µM throughout. Further, the TGI (usually the concentration giving total growth inhibition) in the assay on SK-MEL-2 melanoma was over 100 µM; in the assay on SW-620 colon it was over 100 µM; in the assay on HL-60(TB) leukemia, 23.7 µM; in the assay on UACC-257 melanoma it was over 100 µM; in the assay on SK-OV-3 ovarian, over 100 µM; in the assay with SNB-75 CNS it was over 100 µM. Besides, the TGI with SN12C renal is over 100 µM; in the assay on MDA-MB-435, 76.6 µM; in the assay with HT29 colon it was over 100 µM; with RPMI-8226 leukemia, 62.4 µM; in the assay with RXF 393 renal, 72.8 µM; in the assay on EKVX NSCLC, over 100 µM.

For the molecule `CN(C)c1ccc(S(=O)Nc2ccccc2)cc1` (centres undefined), the TGI with M14 melanoma is over 100 µM; with NCI-H23 lung, over 100 µM; with TK-10 renal it was over 100 µM; in the assay on SF-295 CNS, over 100 µM; with SF-268 CNS, over 100 µM; in the assay with KM12 colon it was 57.1 µM. Also, the concentration for total growth inhibition (TGI) in the assay with SK-MEL-2 melanoma was 89.1 µM; in the assay with SW-620 colon, over 100 µM; in the assay with HL-60(TB) leukemia, over 100 µM; in the assay with UACC-257 melanoma, 92.9 µM; in the assay on HCC-2998 colon, over 100 µM; in the assay with SN12C renal it was over 100 µM. Further, the concentration for total growth inhibition (TGI) in the assay on MDA-MB-435 is 57.5 µM; in the assay with HT29 colon, over 100 µM; in the assay with RPMI-8226 leukemia, over 100 µM; in the assay with NCI-H460 lung it was over 100 µM; in the assay on EKVX NSCLC, over 100 µM.

As to `C=CCSc1nnc2cc(CN3CCCC3)c(-c3ccc(Cl)cc3)nn12`, the TGI with M14 melanoma came to 34.7 µM; in the assay with NCI-H23 lung, 59.4 µM; in the assay with TK-10 renal, 43.7 µM; in the assay on SF-295 CNS, 53.7 µM; with SF-268 CNS, 46 µM; with KM12 colon it was 64.7 µM. Further, the concentration for total growth inhibition (TGI) in the assay with SK-MEL-2 melanoma was found to be 34.5 µM; with SW-620 colon, 93 µM; with HL-60(TB) leukemia, 43.5 µM; in the assay on UACC-257 melanoma, 32.3 µM; in the assay with SK-OV-3 ovarian it was 55.5 µM; with SNB-75 CNS, 39.2 µM. Moreover, the TGI is 32.1 µM in the assay with SN12C renal; 41.7 µM in the assay on MDA-MB-435; 32.5 µM in the assay with HT29 colon; over 100 µM in the assay with RPMI-8226 leukemia; 31.5 µM in the assay with RXF 393 renal; 36.1 µM in the assay on NCI-H460 lung. Moreover, the TGI in the assay on EKVX NSCLC turned out to be 43.8 µM.

For the molecule `CC1=C[C@@H]2Cc3nc4cc(Cl)ccc4c(N)c3[C@H](C1)C2`, the TGI was determined as 18.1 µM with M14 melanoma; 22.3 µM in the assay with NCI-H23 lung; 19.5 µM in the assay on TK-10 renal; 20 µM in the assay with SF-295 CNS; 25.8 µM in the assay with SF-268 CNS; 21.6 µM in the assay on KM12 colon. In addition, the TGI came to 29.7 µM in the assay with SK-MEL-2 melanoma; 25.3 µM with SW-620 colon; 35.3 µM in the assay on HL-60(TB) leukemia; 4.9 µM in the assay on UACC-257 melanoma; 24.3 µM in the assay with SK-OV-3 ovarian; 17.9 µM with SNB-75 CNS. For the same molecule, the concentration for total growth inhibition (TGI) with SN12C renal worked out at 29.6 µM; with MDA-MB-435 it was 25.8 µM; in the assay with HT29 colon, 13.2 µM; in the assay with RPMI-8226 leukemia, 13.4 µM; in the assay with RXF 393 renal, 18.3 µM; in the assay with NCI-H460 lung, 23.1 µM. In the assay with EKVX NSCLC, this molecule displayed a TGI of 13.3 µM.

Consider `COc1cc(C2c3cc4c(cc3OC(NN)C2C)OCO4)cc(OC)c1OC` (centres undefined), for which the TGI was over 100 µM with M14 melanoma; over 100 µM in the assay with NCI-H23 lung; over 100 µM in the assay with TK-10 renal; over 22.7 µM with SF-295 CNS; over 100 µM in the assay with SF-268 CNS; over 100 µM with KM12 colon. Moreover, the TGI was over 100 µM in the assay on SK-MEL-2 melanoma; over 100 µM with SW-620 colon; 0.977 µM in the assay on HL-60(TB) leukemia; over 100 µM with UACC-257 melanoma; over 100 µM in the assay with SK-OV-3 ovarian; over 75.2 µM in the assay with SNB-75 CNS. Moreover, the concentration for total growth inhibition (TGI) in the assay on HCC-2998 colon was 3.55 µM; in the assay on SN12C renal, over 100 µM; with RPMI-8226 leukemia it was 67.7 µM; in the assay with RXF 393 renal, over 100 µM; in the assay on NCI-H460 lung, over 100 µM; in the assay on EKVX NSCLC, over 100 µM.

In the case of `Cc1cc(N(CCOS(C)(=O)=O)CCOS(C)(=O)=O)ccc1C=O`, the TGI with M14 melanoma was 30.5 µM; in the assay on NCI-H23 lung, 36.9 µM; with TK-10 renal, over 100 µM; in the assay with SF-295 CNS, over 100 µM; with SF-268 CNS, over 100 µM; in the assay on KM12 colon, 54.6 µM. Moreover, the TGI is 72.9 µM in the assay on SK-MEL-2 melanoma; over 100 µM with SW-620 colon; over 100 µM with HL-60(TB) leukemia; 48 µM in the assay on UACC-257 melanoma; 24.6 µM in the assay on HCC-2998 colon; 11.6 µM with SN12C renal. Besides, the TGI in the assay on MDA-MB-435 is 28.8 µM; with HT29 colon, over 100 µM; in the assay with RPMI-8226 leukemia it was over 100 µM; with NCI-H460 lung it was 6.35 µM; in the assay on EKVX NSCLC, 22.9 µM.

The values above are taken from PubChem BioAssay (NCI).
